From US7902148B2, “Use of an echinocandin antifungal agent in combination with a glycopeptide antibacterial agent” (Theravance, Inc., priority 2003, dated 2011)

What was measured:
[1] = test system: C. neoformans ATCC 56991; experiment: Checkerboard MIC assay for FICI; type: cell-based, Cryptococcus neoformans
From the text: (§1) The following assay was used to determine the minimum inhibitory concentration (MIC) and fractional inhibitory concentration index (FICI) for combinations of antifungal agents and antibacterial agents. This assay and methods for calculating FICI are well known in the art. See, for example, Eliopoulos, E. G. and R. Moellering, Jr. “Antimicrobial Combinations” in Antibiotics in Laboratory Medicine, edited by V. Lorian, 4th Ed., Williams & Wilkins, Baltimore, Md., pp. 330-396 (1996); Shalit et al., Antimicrobial Agents and Chemotherapy 47(4):1416-1418 (2003); or Afeltra et al., Antimicrobial Agents and Chemotherapy 46(10):3323-3326 (2002).
(§2) Using a checkerboard method, a 2-fold dilution 100× final concentration master plate was prepared using a 96-well U-shape microtiter plate and an appropriate solvent. In the “checkerboard” method, a microtiter plate is divided into “columns” in which each well in the column contains the same amount of an antifungal agent (Compound A) being diluted along the x-axis, and “rows” in which each well in the row contains the same amount of a glycopeptide antibacterial agent (Compound B) being diluted on the γ-axis. Also included is a row (or column) for Compound A or B alone. The dilutions used in the checkerboard are exponential (by powers of two). […]

[2] = test system: C. glabrata ATCC 200918; experiment: Checkerboard MIC assay for FICI; type: cell-based, Candida glabrata
From the text: as §1
(§3) Using a checkerboard method, a 2-fold dilution 100× final concentration master plate was prepared using a 96-well U-shape microtiter plate and an appropriate solvent. In the “checkerboard” method, a microtiter plate is divided into “columns” in which each well in the column contains the same amount of an antifungal agent (Compound A) being diluted along the x-axis, and “rows” in which each well in the row contains the same amount of a glycopeptide antibacterial agent (Compound B) being diluted on the γ-axis. Also included is a row (or column) for Compound A or B alone. The dilutions used in the checkerboard are exponential (by powers of two). The result is that each well in the microtiter plate contains a unique concentration of the two compounds being tested.
(§4) A matrix 2× final concentration was performed by transferring 30 μL of 100× Compound A and Compound B into a 1,440 μL RPMI in deep wells (one deep well per drug combination). After mixing, 100 μL of 2× drug combinations were distributed into 96-well microtiter plates. Compound A was diluted from Column 1 starting at 1,600 μg/mL to Column 11 (1.6 μg/mL). Wells in Column 1 contained a final concentration (after inoculum was added) of 16 μg/mL of Compound A; wells in Column 2 contained a final concentration of 8 μg/mL of Compound A; wells in Column 3 contained a final concentration of 4 μg/mL of Compound A; etc. Compound A was not added to Column 12, so Column 12 contained only Compound B.
(§5) Compound B was diluted from row A starting at 6,400 μg/mL down to row G (100 μg/mL). Wells in Row A contained a final concentration of 64 μg/mL of Compound B; Row B contained a final concentration of 32 μg/mL of Compound B; Row C contained a final concentration of 16 μg/mL of Compound B; etc. Compound B was not added to Row H, so Row H only contained Compound A.
(§6) In most cases, MIC of the glycopeptide antibacterial compound alone was >64 μg/mL. In order to get an accurate measurement, a standard MIC assay using NCCLS protocols was performed with an extended concentration range of from 256 μg/mL to 0.25 μg/mL. […]

[3] = test system: C. albicans ATCC 24433; experiment: Checkerboard MIC assay for FICI; type: cell-based, Candida albicans
From the text: as §1, §3, §4, §5, §6

[4] = test system: A. flavus ATCC 64025; experiment: Checkerboard MIC assay for FICI; type: cell-based, Aspergillus flavus; conditions: combination with caspofungin
From the text: as §1, §2

[5] = test system: M. circinelloides ATCC 26759; experiment: Checkerboard MIC assay for FICI; type: cell-based, Mucor circinelloides; conditions: combination with caspofungin
From the text: as §1, §2

[6] = test system: G. candidum ATCC 62231; experiment: Checkerboard MIC assay for FICI; type: cell-based, Geotricium candidum; conditions: combination with caspofungin
From the text: as §1, §2

[7] = test system: C. tropicalis ATCC 750; experiment: Checkerboard MIC assay for FICI; type: cell-based, Candida tropicalis
From the text: as §1, §3, §4, §5, §6

[8] = test system: A. fumigatus ATCC 14110; experiment: Checkerboard MIC assay for FICI; type: cell-based, Aspergillus fumigatus; conditions: combination with caspofungin
From the text: as §1, §2

[9] = test system: P. boydii ATCC 38283; experiment: Checkerboard MIC assay for FICI; type: cell-based, Pseudallescheria boydii; conditions: combination with caspofungin
From the text: as §1, §2

[10] = test system: C. parapsilosis ATCC 22019; experiment: Checkerboard MIC assay for FICI; type: cell-based, Candida parapsilosis
From the text: as §1, §3, §4, §5, §6

[11] = test system: R. miscrosporus ATCC 14050; experiment: Checkerboard MIC assay for FICI; type: cell-based, Rhizopus microsporus; conditions: combination with caspofungin
From the text: as §1, §2

[12] = test system: A. terreus ATCC 46941; experiment: Checkerboard MIC assay for FICI; type: cell-based; conditions: combination with caspofungin
From the text: as §1, §2

[13] = test system: S. prolificans ATCC 200543; experiment: Checkerboard MIC assay for FICI; type: cell-based; conditions: combination with caspofungin
From the text: as §1, §2

[14] = test system: C. krusei ATCC 32672; experiment: Checkerboard MIC assay for FICI; type: cell-based, Candida krusei
From the text: as §1, §3, §4, §5, §6

[15] = test system: F. moniliforme ATCC 38159; experiment: Checkerboard MIC assay for FICI; type: cell-based, Fusarium moniliforme; conditions: combination with caspofungin
From the text: as §1, §2

[16] = test system: various strains of fungi; experiment: Assay for determining MIC and FICI, summary statements over strains; type: cell-based
From the text: as §1
FICI values are typically evaluated using the following criteria:
Using a checkerboard method, a 2-fold dilution 100× final concentration master plate was prepared using a 96-well U-shape microtiter plate and an appropriate solvent. In the “checkerboard” method, a microtiter plate is divided into “columns” in which each well in the column contains the same amount of an antifungal agent (Compound A) being diluted along the x-axis, and “rows” in which each well in the row contains the same amount of a glycopeptide antibacterial agent (Compound B) being diluted on the γ-axis. […]
The calculated value for the FICI of the combined test compounds was compared to the following standards in certain embodiments: […]

Row | SMILES | FICI ([2]; combination with caspofungin) | FICI ([3]; combination with caspofungin) | FICI ([7]; combination with caspofungin) | FICI ([10]; combination with caspofungin) | FICI ([14]; combination with caspofungin) | FICI ([2]; combination with Compound 1) | FICI ([14]; combination with Compound 1) | FICI ([3]; combination with Compound 1) | FICI ([7]; combination with Compound 1) | FICI ([10]; combination with Compound 1) | other results
1 | CC[C@H](C)C[C@H](C)CCCCCCCCC(=O)N[C@H]1C[C@@H](O)[C@@H](NCCN)NC(=O)[C@@H]2[C@@H](O)CCN2C(=O)[C@H]([C@H](O)CCN)NC(=O)[C@H]([C@H](O)[C@@H](O)c2ccc(O)cc2)NC(=O)[C@@H]2C[C@@H](O)CN2C(=O)[C@H]([C@@H](C)O)NC1=O [caspofungin] |  |  |  |  |  |  |  |  |  |  | activity of caspofungin against C. neoformans ([1]; caspofungin alone): no activity
2 | CCCCCCCCCCNCCN[C@@]1(C)C[C@H](O[C@H]2[C@H](Oc3c4cc5cc3Oc3ccc(cc3Cl)[C@@H](O)[C@@H](NC(=O)[C@@H](CC(C)C)NC)C(=O)N[C@@H](CC(N)=O)C(=O)N[C@H]5C(=O)N[C@H]3C(=O)N[C@H](C(=O)N[C@H](C(=O)O)c5cc(O)c(CNCP(=O)(O)O)c(O)c5-c5cc3ccc5O)[C@H](O)c3ccc(c(Cl)c3)O4)O[C@H](CO)[C@@H](O)[C@@H]2O)O[C@@H](C)[C@H]1O [Compound 1, telavancin] | 0.28 | 0.27 | 0.26 | 0.38 | 0.31 |  |  |  |  |  | FICI [4]: 0.16; FICI ([1]; combination with caspofungin, C. neoformans ATCC 56991, checkerboard): 0.75; FICI [5]: 2; FICI [6]: 0.31; FICI [8]: 0.28; FICI [9]: 0.31; FICI [11]: 2; FICI [12]: 0.31; FICI [13]: 1.25; FICI [15]: 2; effect of the combination with caspofungin ([16]; all yeast strains tested, except C. neoformans, FICI ≦ 0.5 = synergistic): synergistic
3 | C[C@@H](c1ncncc1F)[C@](O)(Cn1cncn1)c1ccc(F)cc1F [Voriconazole, voriconazole] |  |  |  |  |  | 1.13 | 1.13 |  |  |  | 
4 | CN[C@H](CC(C)C)C(=O)N[C@H]1C(=O)N[C@@H](CC(N)=O)C(=O)N[C@H]2C(=O)N[C@H]3C(=O)N[C@H](C(=O)N[C@H](C(=O)O)c4cc(O)cc(O)c4-c4cc3ccc4O)[C@H](O)c3ccc(c(Cl)c3)Oc3cc2cc(c3O[C@@H]2O[C@H](CO)[C@@H](O)[C@H](O)[C@H]2O[C@H]2C[C@](C)(N)[C@H](O)[C@H](C)O2)Oc2ccc(cc2Cl)[C@H]1O [Vancomycin] | 2.00 | 2.00 | 2.00 | 2.00 | 2.00 |  |  |  |  |  | effect of the combination with caspofungin ([16]; strains of Table 1, FICI criteria of b187): not synergistic or additive
5 | Clc1ccc(COC(Cn2ccnc2)c2ccc(Cl)cc2Cl)c(Cl)c1 (stereo not drawn) [Miconazole] |  |  |  |  |  |  |  | 2.00 | 2.00 | 2.00 | 
6 | OC(Cn1cncn1)(Cn1cncn1)c1ccc(F)cc1F [Fluconazole] |  |  |  |  |  | 2.00 | 2.00 | 2.00 | 2.00 | 2.00 | 
